The NIST ThermoML archive (doi:10.1021/je020149l)
± gives the expanded uncertainty stated by the source.

What was measured:
[1] = 293.15 K; 101.33 kPa; Liquid; Vibrating tube method
[2] = excess molar enthalpy (molar enthalpy of mixing); xn = mol fraction of the nth substance listed; conditions: 323.15 K, 101 kPa, Liquid, Flow calorimetry

Q: For `CC(C)=O` [acetone], which mass density [1] is on record?
A: 790.31 ± 0.25 kg/m3

Q: With `CC(C)=O` [acetone] + CCCO as the molecule, how does the excess molar enthalpy ([2]; x2 = 0.025) read?
A: 0.0605 ± 0.00191 kcal/mol

Q: What about the excess molar enthalpy ([2]; x2 = 0.052) of the same molecule?
A: 0.0968 ± 0.00239 kcal/mol

Q: What about the excess molar enthalpy ([2]; x2 = 0.101) of the same molecule?
A: 0.154 ± 0.00359 kcal/mol

Q: What about the excess molar enthalpy ([2]; x2 = 0.151) of the same molecule?
A: 0.202 ± 0.00454 kcal/mol

Q: And the excess molar enthalpy ([2]; x2 = 0.2)?
A: 0.245 ± 0.00526 kcal/mol

Q: What about the excess molar enthalpy ([2]; x2 = 0.252) of the same molecule?
A: 0.282 ± 0.00598 kcal/mol

Q: And the excess molar enthalpy ([2]; x2 = 0.302)?
A: 0.311 ± 0.00669 kcal/mol

Q: And the excess molar enthalpy ([2]; x2 = 0.351)?
A: 0.334 ± 0.00717 kcal/mol

Q: What about the excess molar enthalpy ([2]; x2 = 0.401) of the same molecule?
A: 0.349 ± 0.00741 kcal/mol

Q: And the excess molar enthalpy ([2]; x2 = 0.451)?
A: 0.359 ± 0.00765 kcal/mol

Q: What about the excess molar enthalpy ([2]; x2 = 0.501) of the same molecule?
A: 0.363 ± 0.00765 kcal/mol

Q: And the excess molar enthalpy ([2]; x2 = 0.551)?
A: 0.361 ± 0.00765 kcal/mol

Q: What about the excess molar enthalpy ([2]; x2 = 0.601) of the same molecule?
A: 0.354 ± 0.00765 kcal/mol

Q: And the excess molar enthalpy ([2]; x2 = 0.651)?
A: 0.34 ± 0.00717 kcal/mol

Q: And the excess molar enthalpy ([2]; x2 = 0.702)?
A: 0.32 ± 0.00693 kcal/mol

Q: And the excess molar enthalpy ([2]; x2 = 0.752)?
A: 0.295 ± 0.00645 kcal/mol

Q: And the excess molar enthalpy ([2]; x2 = 0.8)?
A: 0.265 ± 0.00574 kcal/mol

Q: And the excess molar enthalpy ([2]; x2 = 0.851)?
A: 0.223 ± 0.00478 kcal/mol

Q: What about the excess molar enthalpy ([2]; x2 = 0.901) of the same molecule?
A: 0.168 ± 0.00382 kcal/mol

Q: And the excess molar enthalpy ([2]; x2 = 0.952)?
A: 0.112 ± 0.00263 kcal/mol

Q: And the excess molar enthalpy ([2]; x2 = 0.975)?
A: 0.0803 ± 0.00215 kcal/mol

Q: Which results are given for `CC(C)=O` [acetone] + CCO?
A: excess molar enthalpy ([2]; x2 = 0.05): 0.0609 ± 0.00167 kcal/mol; excess molar enthalpy ([2]; x2 = 0.102): 0.115 ± 0.00263 kcal/mol; excess molar enthalpy ([2]; x2 = 0.15): 0.156 ± 0.00335 kcal/mol; excess molar enthalpy ([2]; x2 = 0.2): 0.192 ± 0.0043 kcal/mol; excess molar enthalpy ([2]; x2 = 0.252): 0.222 ± 0.00478 kcal/mol; excess molar enthalpy ([2]; x2 = 0.3): 0.243 ± 0.00526 kcal/mol; excess molar enthalpy ([2]; x2 = 0.352): 0.259 ± 0.0055 kcal/mol; excess molar enthalpy ([2]; x2 = 0.4): 0.269 ± 0.00574 kcal/mol; excess molar enthalpy ([2]; x2 = 0.452): 0.273 ± 0.00598 kcal/mol; excess molar enthalpy ([2]; x2 = 0.501): 0.272 ± 0.00574 kcal/mol; excess molar enthalpy ([2]; x2 = 0.551): 0.265 ± 0.00574 kcal/mol; excess molar enthalpy ([2]; x2 = 0.6): 0.255 ± 0.0055 kcal/mol; excess molar enthalpy ([2]; x2 = 0.65): 0.24 ± 0.00526 kcal/mol; excess molar enthalpy ([2]; x2 = 0.702): 0.22 ± 0.00478 kcal/mol; excess molar enthalpy ([2]; x2 = 0.752): 0.196 ± 0.0043 kcal/mol; excess molar enthalpy ([2]; x2 = 0.8): 0.168 ± 0.00359 kcal/mol; excess molar enthalpy ([2]; x2 = 0.85): 0.134 ± 0.00311 kcal/mol; excess molar enthalpy ([2]; x2 = 0.901): 0.0937 ± 0.00215 kcal/mol; excess molar enthalpy ([2]; x2 = 0.95): 0.0504 ± 0.00143 kcal/mol

Q: For `C1CCCCC1` [cyclohexane], which mass density [1] is on record?
A: 778.56 ± 0.25 kg/m3

Q: What does the source list for `C1CCCCC1` [cyclohexane] + CCO?
A: excess molar enthalpy ([2]; x2 = 0.032): 0.106 ± 0.00263 kcal/mol; excess molar enthalpy ([2]; x2 = 0.054): 0.132 ± 0.00311 kcal/mol; excess molar enthalpy ([2]; x2 = 0.102): 0.169 ± 0.00359 kcal/mol; excess molar enthalpy ([2]; x2 = 0.151): 0.192 ± 0.00406 kcal/mol; excess molar enthalpy ([2]; x2 = 0.202): 0.207 ± 0.00454 kcal/mol; excess molar enthalpy ([2]; x2 = 0.251): 0.217 ± 0.00478 kcal/mol; excess molar enthalpy ([2]; x2 = 0.3): 0.223 ± 0.00478 kcal/mol; excess molar enthalpy ([2]; x2 = 0.351): 0.226 ± 0.00478 kcal/mol; excess molar enthalpy ([2]; x2 = 0.401): 0.226 ± 0.00478 kcal/mol; excess molar enthalpy ([2]; x2 = 0.452): 0.223 ± 0.00478 kcal/mol; excess molar enthalpy ([2]; x2 = 0.5): 0.217 ± 0.00478 kcal/mol; excess molar enthalpy ([2]; x2 = 0.551): 0.209 ± 0.00454 kcal/mol; excess molar enthalpy ([2]; x2 = 0.601): 0.198 ± 0.0043 kcal/mol; excess molar enthalpy ([2]; x2 = 0.65): 0.185 ± 0.00406 kcal/mol; excess molar enthalpy ([2]; x2 = 0.707): 0.165 ± 0.00359 kcal/mol; excess molar enthalpy ([2]; x2 = 0.75): 0.15 ± 0.00335 kcal/mol; excess molar enthalpy ([2]; x2 = 0.802): 0.127 ± 0.00287 kcal/mol; excess molar enthalpy ([2]; x2 = 0.851): 0.101 ± 0.00239 kcal/mol; excess molar enthalpy ([2]; x2 = 0.901): 0.0722 ± 0.00167 kcal/mol; excess molar enthalpy ([2]; x2 = 0.951): 0.038 ± 0.0012 kcal/mol

Q: With `CCO` [ethanol] as the molecule, how does the mass density [1] read?
A: 789.29 ± 0.25 kg/m3

Q: For `CCCCCCC` [heptane], which mass density [1] is on record?
A: 683.91 ± 0.4 kg/m3

Q: What does the source list for `CCCCCCC` [heptane] + CCCO?
A: excess molar enthalpy ([2]; x2 = 0.01): 0.0963 ± 0.00382 kcal/mol; excess molar enthalpy ([2]; x2 = 0.024): 0.142 ± 0.00406 kcal/mol; excess molar enthalpy ([2]; x2 = 0.034): 0.161 ± 0.00382 kcal/mol; excess molar enthalpy ([2]; x2 = 0.053): 0.188 ± 0.00406 kcal/mol; excess molar enthalpy ([2]; x2 = 0.103): 0.229 ± 0.00502 kcal/mol; excess molar enthalpy ([2]; x2 = 0.154): 0.254 ± 0.0055 kcal/mol; excess molar enthalpy ([2]; x2 = 0.203): 0.269 ± 0.00574 kcal/mol; excess molar enthalpy ([2]; x2 = 0.254): 0.279 ± 0.00598 kcal/mol; excess molar enthalpy ([2]; x2 = 0.301): 0.283 ± 0.00598 kcal/mol; excess molar enthalpy ([2]; x2 = 0.353): 0.282 ± 0.00598 kcal/mol; excess molar enthalpy ([2]; x2 = 0.402): 0.277 ± 0.00598 kcal/mol; excess molar enthalpy ([2]; x2 = 0.451): 0.27 ± 0.00574 kcal/mol; excess molar enthalpy ([2]; x2 = 0.503): 0.26 ± 0.0055 kcal/mol; excess molar enthalpy ([2]; x2 = 0.551): 0.247 ± 0.00526 kcal/mol; excess molar enthalpy ([2]; x2 = 0.602): 0.232 ± 0.00502 kcal/mol; excess molar enthalpy ([2]; x2 = 0.651): 0.214 ± 0.00454 kcal/mol; excess molar enthalpy ([2]; x2 = 0.702): 0.195 ± 0.0043 kcal/mol; excess molar enthalpy ([2]; x2 = 0.75): 0.174 ± 0.00382 kcal/mol; excess molar enthalpy ([2]; x2 = 0.801): 0.147 ± 0.00311 kcal/mol; excess molar enthalpy ([2]; x2 = 0.851): 0.124 ± 0.00263 kcal/mol; excess molar enthalpy ([2]; x2 = 0.901): 0.0987 ± 0.00215 kcal/mol; excess molar enthalpy ([2]; x2 = 0.951): 0.0717 ± 0.00167 kcal/mol

Q: For `CCCCCCCC` [octane], which mass density [1] is on record?
A: 702.87 ± 0.41 kg/m3

Q: With `CCCCCCCC` [octane] + CCCO as the molecule, how does the excess molar enthalpy ([2]; x2 = 0.027) read?
A: 0.202 ± 0.00478 kcal/mol

Q: What about the excess molar enthalpy ([2]; x2 = 0.053) of the same molecule?
A: 0.254 ± 0.00574 kcal/mol

Q: What about the excess molar enthalpy ([2]; x2 = 0.103) of the same molecule?
A: 0.31 ± 0.00669 kcal/mol

Q: What about the excess molar enthalpy ([2]; x2 = 0.15) of the same molecule?
A: 0.337 ± 0.00717 kcal/mol

Q: And the excess molar enthalpy ([2]; x2 = 0.208)?
A: 0.359 ± 0.00765 kcal/mol

Q: And the excess molar enthalpy ([2]; x2 = 0.254)?
A: 0.367 ± 0.00789 kcal/mol

Q: And the excess molar enthalpy ([2]; x2 = 0.301)?
A: 0.37 ± 0.00789 kcal/mol

Q: And the excess molar enthalpy ([2]; x2 = 0.352)?
A: 0.367 ± 0.00789 kcal/mol

Q: What about the excess molar enthalpy ([2]; x2 = 0.401) of the same molecule?
A: 0.363 ± 0.00765 kcal/mol

Q: And the excess molar enthalpy ([2]; x2 = 0.452)?
A: 0.351 ± 0.00741 kcal/mol

Q: And the excess molar enthalpy ([2]; x2 = 0.5)?
A: 0.337 ± 0.00717 kcal/mol

Q: What about the excess molar enthalpy ([2]; x2 = 0.55) of the same molecule?
A: 0.32 ± 0.00693 kcal/mol

Q: And the excess molar enthalpy ([2]; x2 = 0.602)?
A: 0.297 ± 0.00645 kcal/mol

Q: What about the excess molar enthalpy ([2]; x2 = 0.652) of the same molecule?
A: 0.268 ± 0.00574 kcal/mol

Q: What about the excess molar enthalpy ([2]; x2 = 0.702) of the same molecule?
A: 0.242 ± 0.00526 kcal/mol

Q: And the excess molar enthalpy ([2]; x2 = 0.752)?
A: 0.214 ± 0.00454 kcal/mol

Q: And the excess molar enthalpy ([2]; x2 = 0.802)?
A: 0.181 ± 0.00406 kcal/mol

Q: What about the excess molar enthalpy ([2]; x2 = 0.852) of the same molecule?
A: 0.148 ± 0.00335 kcal/mol

Q: What about the excess molar enthalpy ([2]; x2 = 0.901) of the same molecule?
A: 0.106 ± 0.00239 kcal/mol

Q: And the excess molar enthalpy ([2]; x2 = 0.95)?
A: 0.0784 ± 0.00191 kcal/mol

Q: For `CCCCCCCC` [octane] + CCO, which excess molar enthalpy ([2]; x2 = 0.028) is on record?
A: 0.206 ± 0.00478 kcal/mol

Q: What about the excess molar enthalpy ([2]; x2 = 0.054) of the same molecule?
A: 0.257 ± 0.00574 kcal/mol

Q: And the excess molar enthalpy ([2]; x2 = 0.104)?
A: 0.303 ± 0.00645 kcal/mol

Q: What about the excess molar enthalpy ([2]; x2 = 0.151) of the same molecule?
A: 0.326 ± 0.00693 kcal/mol

Q: What about the excess molar enthalpy ([2]; x2 = 0.201) of the same molecule?
A: 0.343 ± 0.00741 kcal/mol

Q: What about the excess molar enthalpy ([2]; x2 = 0.252) of the same molecule?
A: 0.355 ± 0.00765 kcal/mol

Q: What about the excess molar enthalpy ([2]; x2 = 0.304) of the same molecule?
A: 0.357 ± 0.00765 kcal/mol

Q: What about the excess molar enthalpy ([2]; x2 = 0.352) of the same molecule?
A: 0.355 ± 0.00765 kcal/mol

Q: And the excess molar enthalpy ([2]; x2 = 0.404)?
A: 0.348 ± 0.00741 kcal/mol

Q: And the excess molar enthalpy ([2]; x2 = 0.452)?
A: 0.337 ± 0.00717 kcal/mol

Q: And the excess molar enthalpy ([2]; x2 = 0.502)?
A: 0.323 ± 0.00693 kcal/mol

Q: And the excess molar enthalpy ([2]; x2 = 0.551)?
A: 0.307 ± 0.00669 kcal/mol

Q: And the excess molar enthalpy ([2]; x2 = 0.601)?
A: 0.288 ± 0.00621 kcal/mol

Q: And the excess molar enthalpy ([2]; x2 = 0.651)?
A: 0.267 ± 0.00574 kcal/mol

Q: What about the excess molar enthalpy ([2]; x2 = 0.7) of the same molecule?
A: 0.245 ± 0.00526 kcal/mol

Q: And the excess molar enthalpy ([2]; x2 = 0.752)?
A: 0.217 ± 0.00478 kcal/mol

Q: What about the excess molar enthalpy ([2]; x2 = 0.801) of the same molecule?
A: 0.191 ± 0.00406 kcal/mol

Q: And the excess molar enthalpy ([2]; x2 = 0.85)?
A: 0.16 ± 0.00359 kcal/mol

Q: And the excess molar enthalpy ([2]; x2 = 0.901)?
A: 0.121 ± 0.00263 kcal/mol

Q: And the excess molar enthalpy ([2]; x2 = 0.95)?
A: 0.0813 ± 0.00191 kcal/mol

Q: Which mass density [1] does the source give for `CCCO` [propan-1-ol] here?
A: 803.63 ± 0.43 kg/m3
